# Read-outs that look alike come from different tables or passages of the source.
# Columns and labels:
# [1] = Octanol-water partition, shake flask (log Papp); format: physicochemical; settings: pH 7.4, Tris buffer
# Description: The partition values between octanol and water (at pH 7.4, Tris buffer) were determined using a “shake flask” direct method of measuring log Papp values (Sangster et al., Octanol-Water Partition Coefficients: Fundamentals and Physical Chemistry; John Wiley and Sons: West Sussex, England, 1997; Vol. 2). The fraction of compound in the octanol is then expressed as log Papp. […] This is likely due to the presence of the aromatic nitrogen, a moderately good hydrogen bond accepter, on the DFT analogs.
# [2] = Job's plot stoichiometry of Fe(III) complexes; format: binding; settings: [DFT analog]+[Fe(III)]=1.0 mM, Tris-HCl pH 7.4; theoretical 0.667 for 2:1
# Description: Solutions containing DFT analog/Fe(III) at different ratios were prepared such that [DFT analog]+[Fe(III)]=1.0 mM in Tris-HCl buffer at pH 7.4. The theoretical mole fraction maximum for a 2:1 DFT analog:Fe complex is 0.667 (indicated by an arrow).
# In each instance, the DFT analogs formed 2:1 complexes with Fe(III). […] A 100 mM Tris HCl buffer was used to maintain the pH at 7.4. Solutions containing different DFT analog/Fe(III) ratios were prepared by mixing appropriate volumes of 1.0 mM DFT analog solution and 1.0 mM Fe(III)-nitriloacetate (NTA) in Tris-HCl buffer. The 1.0 mM Fe(III)-NTA solution was prepared immediately prior to use by dilution of a 41.6 mM Fe(III)-NTA stock solution with the Tris HCl buffer, whereas the DFT analog stock solution was prepared by dissolving the DFT analog as its monosodium salt in Tris HCl buffer at pH 7.4. The Fe(III)-NTA stock solution was prepared by mixing equal volumes of […] of FeCl3 and 180 mM trisodium NTA. The iron content of the Fe(III)-NTA solution was verified by atomic absorption spectrophotometry (AAS).
# [3] = 1H NMR hydrogen-deuterium exchange study; format: physicochemical; settings: 25° C., pH 7.0, phosphate buffer (0.1 M)
# Description: The ratio of the (unexchanged) to the (original) was measured by the diminution of δ 6.33 (d, H-3′, J=2.3) relative to the integration of δ 6.39 (d, H-5′, J=9.0) at time points to 104 min. […] (unexchanged) to the [I-1] (original) was measured by the diminution of δ 6.41 (d, H-4′, J=2.3) relative to the integration of δ 7.54 (d, H-6′, J=2.3) at time points to 16 h. Plots of the natural log of [compound]
# Quinone formation could result in redox cycling and, at a cellular level, untoward side effects. […] The exchange rate order is understandable.
# urinary Kim-1 excretion [4] = settings: for renal toxicity (Kim-1, BUN, SCr), summary: rat, in vivo
# Description: The compounds were administered to the rats po as their monosodium salts, prepared as described above, twice daily at a dose of 237 μmol/kg/dose (474 μmol/kg/d) for up to 7 d. The studies were performed on rats with normal iron stores. The rats were fasted overnight and were given the first dose of the compound first thing in the morning. The rats were fed ˜3 h post-dose and had access to food for ˜5 h before being fasted overnight.
# The rats were housed in individual metabolic cages. […] A baseline (day 0) urine sample was collected and assessed for its Kim-1 content; each animal served as its own control. The urine was collected chilled as previously described (Bergeron et al., “Desferrithiocin Analog Iron Chelators: Iron Clearing Efficiency, Tissue Distribution, and Renal Toxicity.” Biometals, 2011, 24, 239-258).
# The chilled urine was collected, vortexed, and warmed to room temperature; any sediment in the samples was allowed to settle. Kim-1 content was assessed using a Rat Kim-1 Rapid Test Kit according to the manufacturer's instructions. The result was read using a ReaScan Test Reader. […] Data are presented as the mean±the standard error of the mean; p-values were generated via a one-tailed Student's t-test in which the inequality of variances was assumed; and a p-value of <0.05 was considered significant.
# Assessment of chelator-induced impaired renal function has traditionally relied on the detection of a rise in blood urea nitrogen (BUN) and/or serum creatinine (SCr). However, because of the functional reserve of the kidney, these parameters are often unreliable indicators of acute kidney injury; the ultimate answer requires histopathology. […] BioAssay Works has recently developed RenaStick, a direct lateral flow immunochromato-graphic assay, which allows for the rapid detection (less than 30 minutes) and quantitation of urinary Kim-1 (rat) or KIM-1 (human) excretion (Vaidya et al., “A Rapid Urine Test for Early Detection of Kidney Injury.” Kidney. Int. 2009, 76, 108-114). […] The studies were performed on rats with normal iron stores; each animal served as their own control.
# iron excretion [5] = assay: Iron-clearing efficiency in iron-overloaded primates (fecal and urine samples); format: in vivo, Cebus apella monkeys
# Description: At least 20 half-lives, 60 days (Wood et al., “The Metabolism of Iron-Dextran Given As a Total-Dose Infusion to Iron Deficient Jamaican Subjects.” Br. J. Hamaetol. 1968, 14, 119-129), elapsed before any of the animals were used in experiments evaluating iron-chelating agents.
# Briefly, the collections began 4 days prior to the administration of the test compound and continued for an additional 5 days after the compound was given. Iron concentrations were determined by flame absorption spectroscopy as presented in other publications (Bergeron et al., “A Comparative Evaluation of Iron Clearance Models.” Ann. N.Y. Acad. Sci. 1990, 612, 378-393; Bergeron et al., “Synthesis and Biological Evaluation of Naphthyldesferrithiocin Iron Chelators.” J. Med. Chem. 1996, 39, 1575-1581).
# In the text below, the term “iron-clearing efficiency” (ICE) is used as a measure of the amount of iron excretion induced by a chelator. The ICE, expressed as a percent, is calculated as (compound-induced iron excretion/theoretical iron excretion)×100. To illustrate, the theoretical iron excretion after administration of one millimole of desferrioxamine B mesylate (DFO) (FIG. 3), a hexadentate chelator that forms a 1:1 complex with Fe(III), is one milli-g-atom of iron. Two millimoles of desferrithiocin (DFT) (Table 1), a tridentate iron chelator that forms a 2:1 complex with Fe(III), are required for the theoretical excretion of one milli-g-atom of iron. The theoretical iron outputs of the chelators were generated on the basis of a 2:1 compound:iron complex. The efficiencies in the rats and monkeys were calculated as set forth elsewhere (Bergeron et al., “Effects of C-4 Stereochemistry and C-4′ Hydroxylation on the Iron Clearing Efficiency and Toxicity of Desferrithiocin Analogs.” J. Med. Chem. 1999, 42, 2432-2440; Bergeron et al., “HBED: A Potential Alternative to Deferoxamine for Iron-Chelating Therapy.” Blood 1998, 91, 1446-1452).
# iron excretion [6] = settings: cited from earlier work; for relative percentages of the iron excreted in the bile and urine: rodents
# iron excretion [7] = settings: po 75 μmol/kg, cited from earlier work; for relative percentages of the iron excreted in the feces and urine: primates
# [8] = in vivo; cited from earlier work
# [9] = oral; cited from earlier work
# urinary Kim-1 excretion [10] = settings: cited from earlier work
# [11] = day 8, after 237 μmol/kg twice daily × 7 d
# [12] = po twice daily 237 μmol/kg/dose × 7 d
# [13] = po once daily 28 d, once daily 384 μmol/kg/d × 10 d, twice daily 237 μmol/kg/dose × 7 d
smiles,measurement,setting,value
"C[C@]1(C(=O)O)CSC(c2ncc(O)cc2O)=N1 [I-1, (S)-4,5-Dihydro-2-(3,5-dihydroxy-2-pyridinyl)-4-methyl-4-thiazolecarboxylic Acid]",LogPapp,[1],−1.68
same,observed mole fraction maximum in Job's plot,[2],0.669
same,"Exchange Rate (s^−1), hydrogen-deuterium exchange",[3],3.3e-06 s⁻¹
same,BUN,urinary Kim-1 excretion [4]; [11],13 ± 2 mg/dL
same,SCr,urinary Kim-1 excretion [4]; [11],0.5 ± 0.1 mg/dL
same,"renal toxicity (Kim-1, BUN, SCr), summary",urinary Kim-1 excretion [4],some nephrotoxicity
"COCCOCCOc1cnc(C2=N[C@@](C)(C(=O)O)CS2)c(O)c1 [I-2, (S)-4,5-Dihydro-2-[3-hydroxy-5-(3,6-dioxaheptyloxy)-2-pyridinyl]-4-methyl-4-thiazolecarboxylic Acid]",LogPapp,[1],−1.59
same,observed mole fraction maximum in Job's plot,[2],0.676
same,"Exchange Rate (s^−1), hydrogen-deuterium exchange",[3],No change and none and No exchange
same,survival of dosing period,"urinary Kim-1 excretion [4]; po twice daily 237 μmol/kg/dose (474 μmol/kg/d), up to 7 d, rats with normal iron stores",All of the animals survived the compound dosing regimen
same,BUN and SCr,urinary Kim-1 excretion [4]; [12],well within the normal range
same,urinary Kim-1 excretion versus baseline (day 0),urinary Kim-1 excretion [4]; [12],remained within error of that of the baseline (day 0) levels
same,"renal toxicity (Kim-1, BUN, SCr), summary",urinary Kim-1 excretion [4],little to no impact on renal function
"C[C@]1(C(=O)O)CSC(c2ccccc2O)=N1 [compound 2, desazadesferrithiocin]","Performance ratio (PR), mean ICEprimates/ICErodents",iron excretion [5]; primates po / rodents po,8.0
same,LogPapp,[1],−0.34
same,Rodent Iron-Clearing Efficiency (%),"iron excretion [6]; po 150 μmol/kg, solubilized in 40% Cremophor RH-40/water",2.7±0.5%
same,relative percentages of the iron excreted in the bile and urine,"iron excretion [6]; po 150 μmol/kg, 40% Cremophor RH-40/water",100/0
same,Primate Iron-Clearing Efficiency (%),iron excretion [7],21.5±12%
same,relative percentages of the iron excreted in the feces and urine,iron excretion [7],76/24
same,gastrointestinal toxicity,[8],serious gastrointestinal (GI) problems
same,nephrotoxicity,[8],not overtly nephrotoxic
"COCCOCCOCCOc1cccc(C2=N[C@@](C)(C(=O)O)CS2)c1O [compound 5, (S)-4,5-dihydro-2-[2-hydroxy-3-(3,6,9-trioxadecyloxy)]-4-methyl-4-thiazolecarboxylic acid]",nephrotoxicity,[9],the renal toxicity virtually disappeared
COCCOCCOc1ccc(C2=N[C@@](C)(C(=O)O)CS2)c(O)c1 [compound 7],"Performance ratio (PR), mean ICEprimates/ICErodents","iron excretion [5]; primates po, capsule",1.0
same,"Performance ratio (PR), mean ICEprimates/ICErodents","iron excretion [5]; primates po, sodium salt",1.1
same,LogPapp,[1],−0.89
same,Rodent Iron-Clearing Efficiency (%),"iron excretion [6]; po 300 μmol/kg, capsules, 48-h sample collection",26.7±4.7%
same,relative percentages of the iron excreted in the bile and urine,"iron excretion [6]; po 300 μmol/kg, capsules, 48 h",97/3
same,Primate Iron-Clearing Efficiency (%),iron excretion [7]; capsule,26.3 ± 9.9%
same,Primate Iron-Clearing Efficiency (%),iron excretion [7]; sodium salt,28.7 ± 12.4%
same,relative percentages of the iron excreted in the feces and urine,iron excretion [7]; capsule,93/7
same,relative percentages of the iron excreted in the feces and urine,iron excretion [7]; sodium salt,83/17
same,nephrotoxicity,[9],the renal toxicity virtually disappeared
same,BUN and SCr,urinary Kim-1 excretion [10]; [13],well within the normal range
same,survival of dosing period,urinary Kim-1 excretion [10]; [13],All of the rats survived the dosing period
same,urinary Kim-1 content versus baseline (day 0),urinary Kim-1 excretion [10]; [13],stayed within error of this value
same,"renal toxicity (Kim-1, BUN, SCr), summary","urinary Kim-1 excretion [10]; rat, in vivo",little to no impact on renal function
COCCOCCOc1cccc(C2=N[C@@](C)(C(=O)O)CS2)c1O [compound 9],LogPapp,[1],−0.96
same,Rodent Iron-Clearing Efficiency (%),"iron excretion [6]; po 300 μmol/kg, monosodium salt, 48-h sample collection",15.1 ± 2.0%
same,relative percentages of the iron excreted in the bile and urine,"iron excretion [6]; po 300 μmol/kg, monosodium salt, 48 h",99/1
same,Primate Iron-Clearing Efficiency (%),iron excretion [7],22.5 ± 6.4%
same,relative percentages of the iron excreted in the feces and urine,iron excretion [7],86/14
